From ChEMBL document CHEMBL5625190, “Novel fused imidazotriazines acting as promising top. II inhibitors and apoptotic inducers with greater selectivity against head and neck tumors: Design, synthesis, and biological assessments” (Eur J Med Chem, 2023)
≈ marks a conversion by molar mass, not a printed value.

Experiments:
[1] = test system: HepG2; test: Growth inhibition of human HepG2 cell line assessed as reduction in cell viability by SRB colorimetric assay; type: functional, cell-based
[2] = test system: HNO 97 cell line; test: Growth inhibition of human HNO 97 cell line assessed as reduction in cell viability at 100 ug/ml by SRB colorimetric assay relative to control; type: functional; settings: read-out: GI
[3] = test system: HCT-116; test: Growth inhibition of human HCT-116 cells assessed as reduction in cell viability at 100 ug/ml by SRB colorimetric assay relative to control; type: functional; settings: read-out: GI
[4] = test system: HNO 97 cell line; test: Induction of cell cycle arrest in human HNO 97 cell line assessed as increase in cell level at G2-M phase by flow cytometry analysis (reference value: 0.66%); type: functional
[5] = test system: HNO 97 cell line; test: Induction of apoptosis in human HNO 97 cell line assessed as increase in late apoptotic cells by Annexin-V/PI staining based analysis (reference value: 0.12%); type: functional
[6] = test system: A-375; test: Growth inhibition of human A-375 cells assessed as reduction in cell viability at 100 ug/ml by SRB colorimetric assay relative to control; type: functional; settings: read-out: GI
[7] = test system: MDA-MB-231; test: Growth inhibition of human MDA-MB-231 cells assessed as reduction in cell viability at 100 ug/ml by SRB colorimetric assay relative to control; type: functional; settings: read-out: GI
[8] = test system: MG-63; test: Growth inhibition of human MG-63 cells assessed as reduction in cell viability at 100 ug/ml by SRB colorimetric assay relative to control; type: functional; settings: read-out: GI
[9] = test system: NCI-H460; test: Growth inhibition of human NCI-H460 cells assessed as reduction in cell viability at 100 ug/ml by SRB colorimetric assay relative to control; type: functional; settings: read-out: GI
[10] = test system: A549; test: Growth inhibition of human A549 cells assessed as reduction in cell viability at 100 ug/ml by SRB colorimetric assay relative to control; type: functional; settings: read-out: GI
[11] = test system: PC-3; test: Growth inhibition of human PC-3 cells assessed as reduction in cell viability at 100 ug/ml by SRB colorimetric assay relative to control; type: functional; settings: read-out: GI
[12] = test system: HepG2; test: Growth inhibition of human HepG2 cells assessed as reduction in cell viability at 100 ug/ml by SRB colorimetric assay relative to control; type: functional; settings: read-out: GI
[13] = test system: MDA-MB-231; test: Growth inhibition of human MDA-MB-231 cell line assessed as reduction in cell viability by SRB colorimetric assay; type: functional, cell-based
[14] = test system: Caco-2; test: Growth inhibition of human Caco-2 cells assessed as reduction in cell viability at 100 ug/ml by SRB colorimetric assay relative to control; type: functional; settings: read-out: GI
[15] = Downregulation of BCL2 expression in human HNO 97 cell line assessed as fold change by sandwich ELISA analysis; type: functional
[16] = test system: BT-474; test: Growth inhibition of human BT-474 cells assessed as reduction in cell viability at 100 ug/ml by SRB colorimetric assay relative to control; type: functional; settings: read-out: GI
[17] = Growth inhibition of human Oral epithelial cell assessed as reduction in cell viability at 100 ug/ml by SRB colorimetric assay relative to control; type: toxicity, cell-based; settings: oral epithelial cells, at 100 µg/mL, read-out: GI
[18] = test system: HNO 97 cell line; test: Induction of cell cycle arrest in human HNO 97 cell line assessed as increase in cell level at S phase by flow cytometry analysis (reference value: 23.37%); type: functional
[19] = Downregulation of IL-6 expression in human HNO 97 cell line assessed as fold change by sandwich ELISA analysis; type: functional
[20] = molecular target: DNA topoisomerase 2-beta (Homo sapiens) (UniProt Q02880); test: Inhibition of human DNA topoisomerase 2-beta by ELISA method relative to control; settings: concentration not given here
[21] = test system: HNO 97 cell line; test: Growth inhibition of human HNO 97 cell line assessed as reduction in cell viability by SRB colorimetric assay; type: functional, cell-based
[22] = test system: HNO 97 cell line; test: Antioxidant activity against human HNO 97 cell line assessed as increase in GSH level measured after 48 hrs by Ellmans method relative to control; type: functional
[23] = test system: Huh-7; test: Growth inhibition of human Huh-7 cells assessed as reduction in cell viability at 100 ug/ml by SRB colorimetric assay relative to control; type: functional; settings: read-out: GI
[24] = test system: HNO 97 cell line; test: Antioxidant activity against human HNO 97 cell line assessed as NO level measured after 48 hrs relative to control; type: functional
[25] = Upregulation of p53 expression in human HNO 97 cell line assessed as fold change by sandwich ELISA analysis; type: functional
[26] = test system: HNO 97 cell line; test: Antioxidant activity against human HNO 97 cell line assessed as MDA level measured after 48 hrs relative to control; type: functional
[27] = test system: MCF7; test: Growth inhibition of human MCF7 cells assessed as reduction in cell viability at 100 ug/ml by SRB colorimetric assay relative to control; type: functional; settings: read-out: GI
[28] = test system: HNO 97 cell line; test: Induction of apoptosis in human HNO 97 cell line assessed as increase in early apoptotic cells by Annexin-V/PI staining based analysis (reference value: 0.23%); type: functional
[29] = Upregulation of BAX expression in human HNO 97 cell line assessed as fold change by sandwich ELISA analysis; type: functional
[30] = molecular target: T1, DNA topoisomerase 2-alpha (Homo sapiens, UniProt P11388); test: Inhibition of human DNA topoisomerase 2alpha using supercoiled pHot1 DNA as substrate incubated for 30 mins
[31] = test system: Calf thymus DNA; test: Displacement of methyl green from calf thymus DNA assessed as DNA intercalation measured after 24 hrs; type: nucleic-acid assay, Bos taurus
[32] = molecular target: T1, DNA topoisomerase 2-alpha; test: Inhibition of human DNA topoisomerase 2alpha
[33] = test system: HL-60; test: Antiproliferative activity against human HL-60 cells; type: functional, cell-based

Chain of DNA topoisomerase 2-beta (Homo sapiens) (Q02880 whole entry): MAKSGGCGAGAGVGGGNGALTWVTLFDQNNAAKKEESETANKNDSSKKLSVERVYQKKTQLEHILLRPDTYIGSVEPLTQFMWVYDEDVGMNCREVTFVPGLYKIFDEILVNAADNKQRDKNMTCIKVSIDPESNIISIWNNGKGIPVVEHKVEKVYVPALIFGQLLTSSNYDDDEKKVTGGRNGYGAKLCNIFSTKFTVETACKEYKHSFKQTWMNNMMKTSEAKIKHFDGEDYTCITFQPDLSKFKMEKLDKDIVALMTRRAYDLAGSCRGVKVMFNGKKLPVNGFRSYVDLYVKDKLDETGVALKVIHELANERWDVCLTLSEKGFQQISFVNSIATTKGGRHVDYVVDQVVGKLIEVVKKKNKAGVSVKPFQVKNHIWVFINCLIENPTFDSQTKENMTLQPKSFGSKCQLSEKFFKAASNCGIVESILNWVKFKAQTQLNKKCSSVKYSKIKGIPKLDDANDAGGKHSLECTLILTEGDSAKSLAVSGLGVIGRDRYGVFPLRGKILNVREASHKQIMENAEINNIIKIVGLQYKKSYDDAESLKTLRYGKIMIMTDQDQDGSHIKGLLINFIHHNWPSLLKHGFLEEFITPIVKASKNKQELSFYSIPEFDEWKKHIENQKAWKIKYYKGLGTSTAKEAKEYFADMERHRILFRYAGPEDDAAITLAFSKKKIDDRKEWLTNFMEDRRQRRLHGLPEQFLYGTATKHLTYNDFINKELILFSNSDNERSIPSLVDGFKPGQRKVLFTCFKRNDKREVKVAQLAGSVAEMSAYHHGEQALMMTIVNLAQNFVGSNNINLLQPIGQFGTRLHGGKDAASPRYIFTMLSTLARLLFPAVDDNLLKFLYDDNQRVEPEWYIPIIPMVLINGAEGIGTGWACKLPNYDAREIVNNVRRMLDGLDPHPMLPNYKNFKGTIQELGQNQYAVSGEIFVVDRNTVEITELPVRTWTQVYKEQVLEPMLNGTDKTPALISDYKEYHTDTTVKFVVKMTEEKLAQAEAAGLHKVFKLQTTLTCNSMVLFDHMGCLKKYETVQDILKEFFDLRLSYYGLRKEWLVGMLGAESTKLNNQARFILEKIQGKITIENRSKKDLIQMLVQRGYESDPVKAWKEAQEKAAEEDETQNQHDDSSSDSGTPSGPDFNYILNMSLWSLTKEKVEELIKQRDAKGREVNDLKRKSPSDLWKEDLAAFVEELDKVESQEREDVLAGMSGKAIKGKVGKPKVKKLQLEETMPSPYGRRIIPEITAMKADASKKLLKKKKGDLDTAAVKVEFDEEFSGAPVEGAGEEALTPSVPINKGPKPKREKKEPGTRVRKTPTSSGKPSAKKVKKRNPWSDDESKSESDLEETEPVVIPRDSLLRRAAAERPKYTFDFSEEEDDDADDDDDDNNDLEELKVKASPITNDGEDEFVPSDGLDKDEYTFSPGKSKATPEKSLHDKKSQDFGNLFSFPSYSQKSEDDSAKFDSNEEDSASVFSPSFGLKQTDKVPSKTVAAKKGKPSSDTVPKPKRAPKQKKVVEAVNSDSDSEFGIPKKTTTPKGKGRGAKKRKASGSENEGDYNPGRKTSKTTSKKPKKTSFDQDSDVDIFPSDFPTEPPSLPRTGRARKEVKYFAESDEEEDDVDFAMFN
T1 sequence (P11388 whole entry): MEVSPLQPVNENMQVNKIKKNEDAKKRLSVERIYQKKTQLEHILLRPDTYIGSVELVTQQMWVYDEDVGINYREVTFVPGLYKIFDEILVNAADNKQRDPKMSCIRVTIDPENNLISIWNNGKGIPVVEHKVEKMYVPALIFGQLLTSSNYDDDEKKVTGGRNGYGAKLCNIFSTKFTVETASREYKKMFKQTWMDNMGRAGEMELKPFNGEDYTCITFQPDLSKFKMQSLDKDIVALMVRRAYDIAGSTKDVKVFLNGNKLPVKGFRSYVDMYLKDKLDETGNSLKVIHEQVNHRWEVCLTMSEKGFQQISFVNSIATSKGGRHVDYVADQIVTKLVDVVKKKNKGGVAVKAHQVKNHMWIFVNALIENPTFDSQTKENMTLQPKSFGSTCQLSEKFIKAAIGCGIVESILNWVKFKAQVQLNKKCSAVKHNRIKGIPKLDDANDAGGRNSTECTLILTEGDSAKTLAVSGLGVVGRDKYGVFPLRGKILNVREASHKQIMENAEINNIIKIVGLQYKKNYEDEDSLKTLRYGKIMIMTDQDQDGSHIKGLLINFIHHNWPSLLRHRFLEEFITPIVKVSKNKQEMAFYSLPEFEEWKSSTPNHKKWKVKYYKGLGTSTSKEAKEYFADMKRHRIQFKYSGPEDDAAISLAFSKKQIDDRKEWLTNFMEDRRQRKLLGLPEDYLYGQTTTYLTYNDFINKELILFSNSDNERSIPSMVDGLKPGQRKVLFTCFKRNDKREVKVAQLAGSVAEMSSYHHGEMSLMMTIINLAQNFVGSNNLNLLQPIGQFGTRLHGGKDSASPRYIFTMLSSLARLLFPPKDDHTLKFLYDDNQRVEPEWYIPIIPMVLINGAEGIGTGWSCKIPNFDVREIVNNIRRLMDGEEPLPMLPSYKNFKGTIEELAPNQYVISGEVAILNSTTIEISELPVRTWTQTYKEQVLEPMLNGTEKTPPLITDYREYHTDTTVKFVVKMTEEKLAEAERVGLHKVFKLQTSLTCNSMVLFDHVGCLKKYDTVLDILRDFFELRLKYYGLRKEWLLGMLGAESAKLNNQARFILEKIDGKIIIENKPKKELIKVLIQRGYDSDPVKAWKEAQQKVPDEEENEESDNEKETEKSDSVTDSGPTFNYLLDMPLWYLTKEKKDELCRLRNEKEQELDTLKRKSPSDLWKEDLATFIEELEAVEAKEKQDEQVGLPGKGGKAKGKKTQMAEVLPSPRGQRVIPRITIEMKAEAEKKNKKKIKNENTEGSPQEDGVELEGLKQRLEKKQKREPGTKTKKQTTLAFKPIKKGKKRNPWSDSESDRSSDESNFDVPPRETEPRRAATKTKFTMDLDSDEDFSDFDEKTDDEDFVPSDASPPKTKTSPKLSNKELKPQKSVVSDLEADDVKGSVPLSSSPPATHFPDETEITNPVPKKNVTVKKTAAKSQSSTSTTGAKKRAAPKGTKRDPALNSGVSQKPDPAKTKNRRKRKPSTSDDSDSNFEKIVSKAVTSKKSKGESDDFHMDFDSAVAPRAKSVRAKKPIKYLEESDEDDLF

With NC1=Nc2nc3ccccc3n2C(c2ccc(Cl)cc2Cl)N1 (stereo unspecified) the IC50 [1] was 9 mg/L (≈ 27.1 µM), the inhibition of growth at 100 µg/mL [2] was 82.6% and the inhibition of growth at 100 µg/mL [3] was 51.8%. The Activity [4] was 27.94%, the Activity [5] was 1.42% and the inhibition of growth at 100 µg/mL [6] was 67.2%. The inhibition of growth at 100 µg/mL [7] was 71.5%, the inhibition of growth at 100 µg/mL [8] was 66.7% and the inhibition of growth at 100 µg/mL [9] was 71.8%. For the same compound, the inhibition of growth at 100 µg/mL [10] was 69%, the inhibition of growth at 100 µg/mL [11] was 74.3% and the inhibition of growth at 100 µg/mL [12] was 76.5%. For the same compound, the IC50 [13] was 10 mg/L (≈ 30.1 µM), the inhibition of growth at 100 µg/mL [14] was 63.4% and the “fold change (FC)” value [15] was 0.15. For the same compound, the inhibition of growth at 100 µg/mL [16] was 52.4%, the inhibition at 100 ug/ml [17] was 62.8% and the Activity [18] was 46.4%. For the same compound, the “fold change (FC)” value [19] was 0.64, the inhibition [20] was 87.9% and the IC50 [21] was 4 mg/L (≈ 12 µM). The Activity [22] was 177.01%, the inhibition of growth at 100 µg/mL [23] was 73.6% and the Activity [24] was 56.5%. The “fold change (FC)” value [25] was 2.32, the Activity [26] was 46.33% and the inhibition of growth at 100 µg/mL [27] was 72.6%. For the same compound, the Activity [28] was 4.99% and the “fold change (FC)” value [29] was 2.46.

For COc1cccc2c1C(=O)c1c(O)c3c(c(O)c1C2=O)C[C@@](O)(C(=O)CO)C[C@@H]3O[C@H]1C[C@H](N)[C@H](O)[C@H](C)O1 [DOXORUBICIN], the IC50 [1] was 4.6 mg/L (≈ 8.46 µM), the inhibition of growth at 100 µg/mL [2] was 80.3% and the inhibition of growth at 100 µg/mL [3] was 71.3%. For the same compound, the inhibition of growth at 100 µg/mL [6] was 64.1%, the inhibition of growth at 100 µg/mL [7] was 78.2% and the inhibition of growth at 100 µg/mL [8] was 69.9%. The inhibition of growth at 100 µg/mL [9] was 73.6%, the inhibition of growth at 100 µg/mL [10] was 49% and the inhibition of growth at 100 µg/mL [11] was 68%. For the same compound, the inhibition of growth at 100 µg/mL [12] was 59.3%, the IC50 [13] was 8.6 mg/L (≈ 15.8 µM) and the inhibition of growth at 100 µg/mL [14] was 80.8%. It also gave an inhibition of growth at 100 µg/mL [16] of 44.7%, an inhibition at 100 ug/ml [17] of 70.4% and an inhibition [20] of 86.4%. It also gave an IC50 [21] of 9 mg/L (≈ 16.6 µM), an inhibition of growth at 100 µg/mL [23] of 74.8% and an inhibition of growth at 100 µg/mL [27] of 69%.

CCCc1nnc2c3ccccc3c(N/N=C/c3ccc([N+](=O)[O-])cc3)nn12 gave an IC50 [30] of 7.02 µM and an IC50 [31] of 26.2 µM.

In the case of O=C(NNC(=O)c1ccc(Nc2nc3ccccc3n3cnnc23)cc1)NC1CCCCC1, the IC50 [31] is reported as 25.3 µM.

Compound NC1=Nc2nc3ccccc3n2C(c2ccc(Cl)c(Cl)c2)N1 (stereo unspecified) has an IC50 [1] of 4.8 mg/L (≈ 14.4 µM), an inhibition of growth at 100 µg/mL [2] of 78% and an inhibition of growth at 100 µg/mL [3] of 51.1%. It also gave an Activity [4] of 4.99%, an Activity [5] of 0.9% and an inhibition of growth at 100 µg/mL [6] of 63%. It also gave an inhibition of growth at 100 µg/mL [7] of 75%, an inhibition of growth at 100 µg/mL [8] of 66.4% and an inhibition of growth at 100 µg/mL [9] of 73.4%. For the same compound, the inhibition of growth at 100 µg/mL [10] was 67.5%, the inhibition of growth at 100 µg/mL [11] was 75.5% and the inhibition of growth at 100 µg/mL [12] was 63.6%. The IC50 [13] was 4 mg/L (≈ 12 µM), the inhibition of growth at 100 µg/mL [14] was 50.7% and the “fold change (FC)” value [15] was 0.24. For the same compound, the inhibition of growth at 100 µg/mL [16] was 57.7%, the inhibition at 100 ug/ml [17] was 41.6% and the Activity [18] was 58.07%. The “fold change (FC)” value [19] was 0.67, the inhibition [20] was 81.7% and the IC50 [21] was 3 mg/L (≈ 9.03 µM). The Activity [22] was 189.32%, the inhibition of growth at 100 µg/mL [23] was 72.5% and the Activity [24] was 62.06%. For the same compound, the “fold change (FC)” value [25] was 2.16, the Activity [26] was 51.93% and the inhibition of growth at 100 µg/mL [27] was 62%. For the same compound, the Activity [28] was 9.27% and the “fold change (FC)” value [29] was 2.39.

Compound O=C(N/N=C/c1ccncc1)c1cccc2c(=O)c3ccccc3[nH]c12 has an IC50 [32] of 2.26 µM and an IC50 [33] of 0.48 µM.
